Patent US10543212B2, “Substituted amines for treating cardiac diseases” (Cardurion Pharmaceuticals, LLC, priority 2017, dated 2020)

Molecular target: T1, Full-length, GST-tagged, human CaMKIIδ (Homo sapiens, UniProt Q13557)
T1 construct: Full-Length, Glutathione-S-Transferase(GST)-Tagged, Human CaMKIIδ was purchased from Carna Biosciences; purchased Carna Biosciences 02-111
Assay: CaMKIIδ binding assay (TR-FRET with BODIPY-labeled probe ligand)
Outline: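 TR-FRET probe-displacement binding: 0.5 nM GST-CaMKIIδ with 10 μg/mL calmodulin, 1 mM CaCl2, 0.21 nM Tb-anti-GST Ab and 300 nM BODIPY probe in HEPES pH 7.6 buffer. Eight-point 4-fold dilutions, 1 hr at room temperature. IC50 from logistic fit; 100% inhibition defined by 3 μM parent compound.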

[1] = CaMKIIδ binding assay, results of Table 2
[2] = CaMKIIδ binding assay, activity class per Table 2
[3] = Table 2, CaMKIIδ binding assay, activity given as class A/B/C
[4] = Table 2, activity class for CaMKIIδ

T1 sequence (Q13557 1-478 isoform Q13557-12): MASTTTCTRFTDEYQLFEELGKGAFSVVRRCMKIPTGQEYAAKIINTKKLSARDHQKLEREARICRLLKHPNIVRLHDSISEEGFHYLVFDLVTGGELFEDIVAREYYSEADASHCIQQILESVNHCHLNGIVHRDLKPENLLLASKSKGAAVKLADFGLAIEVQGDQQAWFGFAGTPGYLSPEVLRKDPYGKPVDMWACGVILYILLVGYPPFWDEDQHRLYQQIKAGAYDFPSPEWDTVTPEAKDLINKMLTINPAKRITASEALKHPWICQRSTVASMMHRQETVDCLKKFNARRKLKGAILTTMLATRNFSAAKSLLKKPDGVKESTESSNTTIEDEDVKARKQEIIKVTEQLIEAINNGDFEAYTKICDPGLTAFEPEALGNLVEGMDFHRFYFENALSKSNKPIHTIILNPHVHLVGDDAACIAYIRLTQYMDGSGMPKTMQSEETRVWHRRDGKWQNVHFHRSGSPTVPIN

COc1ccc(CN2CCOCC2)cc1Nc1ncc(-c2ccc(Cl)c(O[C@@H](C)Cn3cnnn3)c2)cn1 [Example 448, (S)-5-(3-((1-(1H-tetrazol-1-yl)propan-2-yl)oxy)-4-chlorophenyl)-N-(2-methoxy-5-(morpholinomethyl)phenyl)pyrimidin-2-amine]
IC50 [1]: 0.01 to 0.1 µM

CC(C)c1nn(C2CC3(C2)CN(C2COCCOC2)C3)cc1Nc1ncc(-c2ccc(Cl)c(O[C@@H](C)Cn3cnnn3)c2)cn1 [Example 983, (S)-N-(1-(2-(1,4-dioxepan-6-yl)-2-azaspiro[3.3]heptan-6-yl)-3-isopropyl-1H-pyrazol-4-yl)-5-(3-((1-(1H-tetrazol-1-yl)propan-2-yl)oxy)-4-chlorophenyl)pyrimidin-2-amine]
IC50 [2]: < 0.01 µM

Cc1noc(C)c1Nc1ncc(-c2ccc(Cl)c(O[C@@H](C)Cn3cnnn3)c2)cn1 [Example 747, (S)-N-(5-(3-((1-(1H-tetrazol-1-yl)propan-2-yl)oxy)-4-chlorophenyl)pyrimidin-2-yl)-3,5-dimethylisoxazol-4-amine]
IC50 [3]: 0.01 to 0.1 µM

C[C@@H](Cn1cnnn1)Oc1cc(-c2cnc(Nc3ccc4c(c3)CCN4)nc2)ccc1Cl [Example 451, (S)-N-(5-(3-((1-(1H-tetrazol-1-yl)propan-2-yl)oxy)-4-chlorophenyl)pyrimidin-2-yl)indolin-5-amine]
IC50 [1]: 0.01 to 0.1 µM

COc1cc(N2CCOC(CO)C2)ccc1Nc1ncc(-c2ccc(Cl)c(O[C@@H](C)Cn3cnnn3)c2)cn1 (stereo partly drawn) [Example 594, (4-(4-((5-(3-(((S)-1-(1H-tetrazol-1-yl)propan-2-yl)oxy)-4-chlorophenyl)pyrimidin-2-yl)amino)-3-methoxyphenyl)morpholin-2-yl)methanol]
IC50 [4]: 0.01 to 0.1 µM

C[C@@H](Cn1cnnn1)Oc1cc(-c2cnc(Nc3cc(N4CCN(C5CCOCC5)CC4)ccc3OC(F)(F)F)nc2)ccc1Cl [Example 768, (S)-5-(3-((1-(1H-tetrazol-1-yl)propan-2-yl)oxy)-4-chlorophenyl)-N-(5-(4-(tetrahydro-2H-pyran-4-yl)piperazin-1-yl)-2-(trifluoromethoxy)phenyl)pyrimidin-2-amine]
IC50 [3]: < 0.01 µM

COc1cc2c(cc1Nc1ncc(-c3ccc(Cl)c(O[C@@H](C)Cn4cnnn4)c3)cn1)N(CC1COC1)CC2 [Example 503, (S)-N-(5-(3-((1-(1H-tetrazol-1-yl)propan-2-yl)oxy)-4-chlorophenyl)pyrimidin-2-yl)-5-methoxy-1-(oxetan-3-ylmethyl)indolin-6-amine]
IC50 [1]: 0.01 to 0.1 µM

C[C@@H](Cn1cnnn1)Oc1cc(-c2cnc(Nc3cn(C(C)(C)C(N)=O)nc3OCC(F)(F)F)nc2)ccc1Cl [Example 894, (S)-2-(4-((5-(3-((1-(1H-tetrazol-1-yl)propan-2-yl)oxy)-4-chlorophenyl)pyrimidin-2-yl)amino)-3-(2,2,2-trifluoroethoxy)-1H-pyrazol-1-yl)-2-methylpropanamide]
IC50 [2]: < 0.01 µM

COc1cc2c(cc1Nc1ncc(-c3ccc(C#N)c(O[C@@H](C)Cn4cnnn4)c3)cn1)C(=O)N(CC1COC1)C2 [Example 446, (S)-2-((1-(1H-tetrazol-1-yl)propan-2-yl)oxy)-4-(2-((6-methoxy-2-(oxetan-3-ylmethyl)-3-oxoisoindolin-5-yl)amino)pyrimidin-5-yl)benzonitrile]
IC50 [1]: 0.01 to 0.1 µM

C[C@@H](Cn1cnnn1)Oc1cc(-c2cnc(Nc3cn(C4CC5(C4)CN(Cc4ncccn4)C5)nc3OCC(F)(F)F)nc2)ccc1Cl [Example 984, (S)-5-(3-((1-(1H-tetrazol-1-yl)propan-2-yl)oxy)-4-chlorophenyl)-N-(1-(2-(pyrimidin-2-ylmethyl)-2-azaspiro[3.3]heptan-6-yl)-3-(2,2,2-trifluoroethoxy)-1H-pyrazol-4-yl)pyrimidin-2-amine]
IC50 [2]: < 0.01 µM

C[C@@H](Cn1cnnn1)Oc1cc(-c2cnc(Nc3cn(CC4(O)CCC4)nc3OCC(F)(F)F)nc2)ccc1Cl [Example 853, (S)-1-((4-((5-(3-((1-(1H-tetrazol-1-yl)propan-2-yl)oxy)-4-chlorophenyl)pyrimidin-2-yl)amino)-3-(2,2,2-trifluoroethoxy)-1H-pyrazol-1-yl)methyl)cyclobutan-1-ol]
IC50 [3]: < 0.01 µM

C[C@@H](Cn1cnnn1)Oc1cc(-c2cnc(Nc3cn(CC(C)(C)O)nc3OCC(F)(F)F)nc2)ccc1Cl [Example 816, (S)-1-(4-((5-(3-((1-(1H-tetrazol-1-yl)propan-2-yl)oxy)-4-chlorophenyl)pyrimidin-2-yl)amino)-3-(2,2,2-trifluoroethoxy)-1H-pyrazol-1-yl)-2-methylpropan-2-ol]
IC50 [3]: < 0.01 µM

CC(C)c1nn(C2CC3(C2)CN(C2(C)CCOCC2)C3)cc1Nc1ncc(-c2ccc(Cl)c(O[C@@H](C)Cn3cnnn3)c2)cn1 [Example 960, (S)-5-(3-((1-(1H-tetrazol-1-yl)propan-2-yl)oxy)-4-chlorophenyl)-N-(3-isopropyl-1-(2-(4-methyltetrahydro-2H-pyran-4-yl)-2-azaspiro[3.3]heptan-6-yl)-1H-pyrazol-4-yl)pyrimidin-2-amine]
IC50 [2]: < 0.01 µM

COc1nn(C2CCN(C3CCOCC3)CC2)cc1Nc1ncc(-c2ccc(Cl)c(O[C@@H](C)Cn3cnnn3)c2)cn1 [Example 662, (S)-5-(3-((1-(1H-tetrazol-1-yl)propan-2-yl)oxy)-4-chlorophenyl)-N-(3-methoxy-1-(1-(tetrahydro-2H-pyran-4-yl)piperidin-4-yl)-1H-pyrazol-4-yl)pyrimidin-2-amine]
IC50 [4]: < 0.01 µM

C[C@@H](Cn1cnnn1)Oc1cc(-c2cnc(Nc3cn([C@H]4CC[C@@H](N5CCOCC5)CC4)nc3OCC(F)F)nc2)ccc1F [Example 834, 5-(3-(((S)-1-(1H-tetrazol-1-yl)propan-2-yl)oxy)-4-fluorophenyl)-N-(3-(2,2-difluoroethoxy)-1-(cis-4-morpholinocyclohexyl)-1H-pyrazol-4-yl)pyrimidin-2-amine]
IC50 [3]: 0.01 to 0.1 µM

C[C@@H](Cn1cnnn1)Oc1cc(-c2cnc(Nc3cn([C@H]4CC[C@@H](N5CCOCC5)CC4)nc3C(F)(F)F)nc2)ccc1F [Example 807, 5-(3-(((S)-1-(1H-tetrazol-1-yl)propan-2-yl)oxy)-4-fluorophenyl)-N-(1-(cis-4-morpholinocyclohexyl)-3-(trifluoromethyl)-1H-pyrazol-4-yl)pyrimidin-2-amine]
IC50 [3]: 0.01 to 0.1 µM

C[C@@H](Cn1cnnn1)Oc1cc(-c2cnc(Nc3cn(C4CCCN(C(=O)OC(C)(C)C)C4)nc3C(F)(F)F)nc2)ccc1Cl (stereo partly drawn) [Example 599, tert-butyl 3-(4-((5-(3-(((S)-1-(1H-tetrazol-1-yl)propan-2-yl)oxy)-4-chlorophenyl)pyrimidin-2-yl)amino)-3-(trifluoromethyl)-1H-pyrazol-1-yl)piperidine-1-carboxylate]
IC50 [4]: ≥ 0.1 µM

C[C@@H](Cn1cnnn1)Oc1cc(-c2cnc(Nc3cn(C4CCN(CCC(C)(C)C)CC4)nc3C(F)(F)F)nc2)ccc1Cl [Example 547, (S)-5-(3-((1-(1H-tetrazol-1-yl)propan-2-yl)oxy)-4-chlorophenyl)-N-(1-(1-(3,3-dimethylbutyl)piperidin-4-yl)-3-(trifluoromethyl)-1H-pyrazol-4-yl)pyrimidin-2-amine]
IC50 [1]: < 0.01 µM

C[C@@H](Cn1cnnn1)Oc1cc(-c2cnc(Nc3cn(C4CCN(Cc5cc[nH]n5)CC4)nc3C(F)(F)F)nc2)ccc1Cl [Example 561, (S)-N-(1-(1-((1H-pyrazol-3-yl)methyl)piperidin-4-yl)-3-(trifluoromethyl)-1H-pyrazol-4-yl)-5-(3-((1-(1H-tetrazol-1-yl)propan-2-yl)oxy)-4-chlorophenyl)pyrimidin-2-amine]
IC50 [1]: < 0.01 µM

CC(C)c1nn(C2CC3(C2)CN(C2COCOC2)C3)cc1Nc1ncc(-c2ccc(Cl)c(O[C@@H](C)Cn3cnnn3)c2)cn1 [Example 1013, (S)-N-(1-(2-(1,3-dioxan-5-yl)-2-azaspiro[3.3]heptan-6-yl)-3-isopropyl-1H-pyrazol-4-yl)-5-(3-((1-(1H-tetrazol-1-yl)propan-2-yl)oxy)-4-chlorophenyl)pyrimidin-2-amine]
IC50 [2]: < 0.01 µM

C[C@@H](CO)Cn1cc(Nc2ncc(-c3ccc(Cl)c(O[C@@H](C)Cn4cnnn4)c3)cn2)c(OCC(F)(F)F)n1 [Example 784, (R)-3-(4-((5-(3-(((S)-1-(1H-tetrazol-1-yl)propan-2-yl)oxy)-4-chlorophenyl)pyrimidin-2-yl)amino)-3-(2,2,2-trifluoroethoxy)-1H-pyrazol-1-yl)-2-methylpropan-1-ol]
IC50 [3]: < 0.01 µM

Cc1cc(Nc2ncc(-c3ccc(Cl)c(O[C@@H](C)Cn4cnnn4)c3)cn2)n(CCC#N)n1 [Example 746, (S)-3-(5-((5-(3-((1-(1H-tetrazol-1-yl)propan-2-yl)oxy)-4-chlorophenyl)pyrimidin-2-yl)amino)-3-methyl-1H-pyrazol-1-yl)propanenitrile]
IC50 [3]: ≥ 0.1 µM

COc1nc(N2CCN(CC(F)(F)F)CC2)ccc1Nc1ncc(-c2ccc(Cl)c(O[C@@H](C)Cn3cnnn3)c2)cn1 [Example 637, (S)-5-(3-((1-(1H-tetrazol-1-yl)propan-2-yl)oxy)-4-chlorophenyl)-N-(2-methoxy-6-(4-(2,2,2-trifluoroethyl)piperazin-1-yl)pyridin-3-yl)pyrimidin-2-amine]
IC50 [4]: ≥ 0.1 µM

C[C@@H](Cn1cnnn1)Oc1cc(-c2cnc(Nc3cn(CC4(O)CCC4)nc3C(F)(F)F)nc2)ccc1Cl [Example 855, (S)-1-((4-((5-(3-((1-(1H-tetrazol-1-yl)propan-2-yl)oxy)-4-chlorophenyl)pyrimidin-2-yl)amino)-3-(trifluoromethyl)-1H-pyrazol-1-yl)methyl)cyclobutan-1-ol]
IC50 [3]: < 0.01 µM

C[C@@H](Cn1cnnn1)Oc1cc(-c2cnc(Nc3cn(C4CCCCC4O)nc3C(F)(F)F)nc2)ccc1Cl (stereo partly drawn) [Example 733, 2-(4-((5-(3-(((S)-1-(1H-tetrazol-1-yl)propan-2-yl)oxy)-4-chlorophenyl)pyrimidin-2-yl)amino)-3-(trifluoromethyl)-1H-pyrazol-1-yl)cyclohexan-1-ol]
IC50 [3]: < 0.01 µM
